# Literature values as cited in patent publication US20230139888A1, “MOISTURIZING PEEL CREAM FOR ENHANCING SKIN” (L'OREAL, priority 2021, published 2023).
# Settings: acute oral toxicity, mutagenicity, skin irritation, skin sensitization, phototoxicity
smiles,measurement,value
CC(c1ccccc1)c1ccc(O)cc1O (stereo not shown) [Phenylethyl resorcinol],adverse effects in basic toxicological tests,has not shown adverse effects
